Results taken from ChEMBL document CHEMBL1649408, “Synthesis and in vitro antimycobacterial activity of 8-OCH(3) ciprofloxacin methylene and ethylene isatin derivatives” (Eur J Med Chem, 2011).
In brackets after ≈: the same amount, converted by molar mass.

What was measured:
[1] = system: Mycolicibacterium smegmatis; assay: Antimycobacterial activity against Mycobacterium smegmatis CMCC 93202 after 72 hrs by serial double dilution technique; format: functional; settings: CMCC 93202, 72 h
[2] = system: Mycobacterium tuberculosis; assay: microbe, parasite or virus in culture; format: functional; settings: H37Rv ATCC 27294, 168 h
Description: Antimycobacterial activity against Mycobacterium tuberculosis H37Rv ATCC 27294 after 7 days by serial double dilution technique

[3] = Cytotoxicity against african green monkey Vero cells after 72 hrs by MTT assat; settings: chlorocebus sabaeus
[4] = system: Mycobacterium tuberculosis; assay: Ratio of compound MIC to 8-OCH3 ciprofloxacin MIC for Mycobacterium tuberculosis H37Rv ATCC 27294; format: functional

Row | SMILES | MIC [1] [µM] | MIC [2] [µM] | CC50 at 72 h ([3]; Vero cells) [µM] | Ratio [4] | CC50 at 72 h ([3]; vero) [µM]
1 | CO/N=C1\C(=O)N(CN2CCN(c3c(F)cc4c(=O)c(C(=O)O)cn(C5CC5)c4c3OC)CC2)c2ccc(F)cc21 | 2.75 (≈ 1.56 µg/mL) | 0.14 (≈ 0.0795 µg/mL) | 46.8 | 1.6 | –
2 | COc1c(N2CCN(CN3C(=O)/C(=N\O)c4cc(F)ccc43)CC2)c(F)cc2c(=O)c(C(=O)O)cn(C3CC3)c12 | 1.41 (≈ 0.78 µg/mL) | 0.14 (≈ 0.0775 µg/mL) | 73.8 | – | –
3 | COc1c(N2CCN(CCN3C(=O)/C(=N\NC(N)=O)c4cc(F)ccc43)CC2)c(F)cc2c(=O)c(C(=O)O)cn(C3CC3)c12 | 5.12 (≈ 3.12 µg/mL) | – | – | – | –
4 | CCO/N=C1\C(=O)N(CCN2CCN(c3c(F)cc4c(=O)c(C(=O)O)cn(C5CC5)c4c3OC)CC2)c2ccccc21 | 5.41 (≈ 3.12 µg/mL) | – | – | – | –
5 | COc1c(N2CCN(CCN3C(=O)C(=O)c4ccccc43)CC2)c(F)cc2c(=O)c(C(=O)O)cn(C3CC3)c12 | 5.84 (≈ 3.12 µg/mL) | – | – | – | –
6 | CCO/N=C1\C(=O)N(CCN2CCN(c3c(F)cc4c(=O)c(C(=O)O)cn(C5CC5)c4c3OC)CC2)c2ccc(F)cc21 | 1.31 (≈ 0.78 µg/mL) | – | – | – | –
7 | COc1c(N2CCN(CCN3C(=O)/C(=N\NC(N)=S)c4cc(F)ccc43)CC2)c(F)cc2c(=O)c(C(=O)O)cn(C3CC3)c12 | 2.5 (≈ 1.56 µg/mL) | 1.02 (≈ 0.638 µg/mL) | 57 | – | –
8 | COc1c(N2CCN(CN3C(=O)C(=O)c4ccccc43)CC2)c(F)cc2c(=O)c(C(=O)O)cn(C3CC3)c12 | 24 (≈ 12.5 µg/mL) | 0.15 (≈ 0.0781 µg/mL) | 70.8 | – | –
9 | COc1c(N2CCN(CCN3C(=O)C(=O)c4cc(F)ccc43)CC2)c(F)cc2c(=O)c(C(=O)O)cn(C3CC3)c12 | 2.83 (≈ 1.56 µg/mL) | – | – | – | –
10 | O=C(O)c1cn(C2CC2)c2cc(N3CCNCC3)c(F)cc2c1=O [CIPROFLOXACIN] | 2.36 (≈ 0.782 µg/mL) | 0.97 (≈ 0.321 µg/mL) | – | – | 601
11 | CCO/N=C1\C(=O)N(CN2CCN(c3c(F)cc4c(=O)c(C(=O)O)cn(C5CC5)c4c3OC)CC2)c2ccccc21 | 2.77 (≈ 1.56 µg/mL) | 0.14 (≈ 0.0789 µg/mL) | 91.5 | – | –
12 | COc1c(N2CCN(CN3C(=O)/C(=N\NC(N)=S)c4ccccc43)CC2)c(F)cc2c(=O)c(C(=O)O)cn(C3CC3)c12 | 2.63 (≈ 1.56 µg/mL) | 0.13 (≈ 0.0772 µg/mL) | 154 | 1.6 | –
13 | COc1c(N2CCN(CN3C(=O)C(=O)c4cc(F)ccc43)CC2)c(F)cc2c(=O)c(C(=O)O)cn(C3CC3)c12 | 2.9 (≈ 1.56 µg/mL) | 0.074 (≈ 0.0398 µg/mL) | 70.6 | – | –
14 | COc1c(N2CCN(CCN3C(=O)/C(=N\O)c4cc(F)ccc43)CC2)c(F)cc2c(=O)c(C(=O)O)cn(C3CC3)c12 | 22.1 (≈ 12.5 µg/mL) | – | – | – | –
15 | COc1c(N2CCN(CN3C(=O)/C(=N\NC(N)=O)c4cc(F)ccc43)CC2)c(F)cc2c(=O)c(C(=O)O)cn(C3CC3)c12 | 2.62 (≈ 1.56 µg/mL) | 0.13 (≈ 0.0774 µg/mL) | 168 | 1.6 | –
16 | COc1c(N2CCN(CN3C(=O)/C(=N\O)c4ccccc43)CC2)c(F)cc2c(=O)c(C(=O)O)cn(C3CC3)c12 | 2.92 (≈ 1.56 µg/mL) | 0.15 (≈ 0.0803 µg/mL) | 74.4 | – | –
17 | CO/N=C1\C(=O)N(CCN2CCN(c3c(F)cc4c(=O)c(C(=O)O)cn(C5CC5)c4c3OC)CC2)c2ccccc21 | 2.77 (≈ 1.56 µg/mL) | 1.14 (≈ 0.642 µg/mL) | 306 | – | –
18 | CO[C@H]1/C=C/O[C@@]2(C)Oc3c(C)c(O)c4c(O)c(c(/C=N/N5CCN(C)CC5)c(O)c4c3C2=O)NC(=O)/C(C)=C\C=C\[C@H](C)[C@H](O)[C@@H](C)[C@@H](O)[C@@H](C)[C@H](OC(C)=O)[C@@H]1C [RIFAMPIN] | 3.79 (≈ 3.12 µg/mL) | 0.19 (≈ 0.156 µg/mL) | 180 | – | –
19 | CCO/N=C1\C(=O)N(CN2CCN(c3c(F)cc4c(=O)c(C(=O)O)cn(C5CC5)c4c3OC)CC2)c2ccc(F)cc21 | 2.68 (≈ 1.56 µg/mL) | 0.55 (≈ 0.32 µg/mL) | 85.8 | – | –
20 | CO/N=C1\C(=O)N(CCN2CCN(c3c(F)cc4c(=O)c(C(=O)O)cn(C5CC5)c4c3OC)CC2)c2ccc(F)cc21 | 2.68 (≈ 1.56 µg/mL) | 1.1 (≈ 0.64 µg/mL) | 12.8 | – | –
21 | CO/N=C1\C(=O)N(CN2CCN(c3c(F)cc4c(=O)c(C(=O)O)cn(C5CC5)c4c3OC)CC2)c2ccccc21 | 5.68 (≈ 3.12 µg/mL) | 0.15 (≈ 0.0824 µg/mL) | 76.5 | – | –
22 | COc1c(N2CCN(CCN3C(=O)/C(=N\NC(N)=O)c4ccccc43)CC2)c(F)cc2c(=O)c(C(=O)O)cn(C3CC3)c12 | 5.28 (≈ 3.12 µg/mL) | – | – | – | –
23 | COc1c(N2CCN(CCN3C(=O)/C(=N\NC(N)=S)c4ccccc43)CC2)c(F)cc2c(=O)c(C(=O)O)cn(C3CC3)c12 | 2.57 (≈ 1.56 µg/mL) | 1.05 (≈ 0.638 µg/mL) | 56.1 | – | –
24 | COc1c(N2CCN(CN3C(=O)/C(=N\NC(N)=O)c4ccccc43)CC2)c(F)cc2c(=O)c(C(=O)O)cn(C3CC3)c12 | 1.35 (≈ 0.78 µg/mL) | 0.14 (≈ 0.0809 µg/mL) | 266 | 1.6 | –
25 | NNC(=O)c1ccncc1 [ISONIAZID] | 5.69 (≈ 0.78 µg/mL) | 0.29 (≈ 0.0398 µg/mL) | – | – | –
26 | COc1c(N2CCN(CCN3C(=O)/C(=N\O)c4ccccc43)CC2)c(F)cc2c(=O)c(C(=O)O)cn(C3CC3)c12 | 11.4 (≈ 6.25 µg/mL) | – | – | – | –
27 | COc1c(N2CCNCC2)c(F)cc2c(=O)c(C(=O)O)cn(C3CC3)c12 | 0.54 (≈ 0.195 µg/mL) | 0.22 (≈ 0.0795 µg/mL) | 242 | – | –
